Data as given in PMC7483518, “Destabilizing single chain major histocompatibility complex class I protein for repurposed enterokinase proteolysis” (Scientific Reports, 2020).
Values joined by “and” are separate entries in the source; they are usually repeats but may differ in a detail not shown here. Identical values can stand only once. Like-named read-outs stand apart in the source and are kept apart here.

Tests used:
[1] = target: photolabile unchained HLA-A*11:01 pMHC-I protein (Homo sapiens, UniProt P04439, A114D/D185E/E176A/F33Y/L180Q/S129P/T187R); assay: ELISA with photolabile unchained pMHC-I protein and UV irradiation; assay type: binding
[2] = test system: HLA-A*11:01 single chain protein; assay type: biochemical, Human; parameters: EZ50kDa / EZ50kD (pH 6.2) / EZ50kD (pH 8) / EZ50kD (normalised: EBV1101 = 1, EBV0201 = 0) / EZ50kDa rank: unit not given beside the values; conditions: for EZ50kDa: Table 3, EGFR peptide library (n = 177, duplicated), 14 h;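 on EZ50kD (pH 6.2): scaled with positive control peptide as 1 and negative control peptide as 0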;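 on EZ50kDa: intact 50 kDa band volume scaled with positive control peptide as 1 and negative as 0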
[3] = EASY MHC-I A*11:01, run 2019-08-07, 5min, mean of 2 replicates
[4] = EASY MHC-I A*11:01, 2019-07-25, mean of the 2 replicates
[5] = EASY MHC-I A*11:01, run 2019-08-06, 5min, mean of 2 replicates
[6] = EASY MHC-I A*11:01, 2019-08-01, mean of the 2 replicates
[7] = pH 6.2, 37 °C, enterokinase, Eq. (4)
[8] = EASY MHC-I A*11:01, run 2019-08-08, 5min, mean of 2 replicates
[9] = EASY MHC-I A*11:01, 2019-07-26, mean of the 2 replicates
[10] = EASY MHC-I A*11:01, gel 2019-07-24 lr1046_ex1004 5min, replicate 1 (lanes 1-14)
[11] = EASY MHC-I A*11:01, gel 2019-07-24 lr1046_ex1004 5min, replicate 2 (lanes 15-28)
[12] = EASY MHC-I A*11:01, gel 2019-07-17 lr1028-1036 5min, replicate 1 (lanes 1-14)
[13] = EASY MHC-I A*11:01, gel 2019-07-17 lr1028-1036 5min, replicate 2 (lanes 15-28)

What does the source list for TSPKANKE [EX1004]?
EASY_mean [1]: -0.008845; EZ_mean [2]: -0.03458

For FGSLLDYV [CS1006], which EASY_mean [1] is on record?
Its EASY_mean is -0.03548.

And the EZ_mean [2]?
The EZ_mean was -0.06948.

What does the source list for ATVLMGLGK [reference compound]?
ELISA450nm ([1]; Table 2, 62.5 nM photolabile pMHC-I mixture, 5 μM peptide in PBS, UV 365 nm 2 × 5 min on ice, 2 h room temperature on anti-β2m plate, Abs450nm − Abs570nm, instability cutoff < 0.6): 1.911; EZ50kD (pH 6.2) ([2]; Table 2, pH 6.2, 37 °C, enterokinase, Eq. (4), instability cutoff < 0.3): 1.039

What does the source list for FGRAKLLGAE [LR1025]?
EASY_mean ([1]; ELISA signal, mean, […]): -0.01153; EZ_mean [2]: -0.04476

How did the EASY_mean [1] turn out when GSLLDYVRE [CS1016] was run?
The EASY_mean was -0.02695.

And the EZ_mean [2]?
Its EZ_mean is -0.06376.

With CLTSTVQLIM [TM1018] as the sequence, how does the EASY_mean ([1]; […], mean, STDEV) read?
Its EASY_mean is 0.01464.

What about the EZ_mean [2, 3] of the same sequence?
Its EZ_mean is -0.01698.

With TSPKANKEI [EX1009] as the sequence, how does the EASY_mean ([1]; […], mean, STDEV) read?
Its EASY_mean is -0.005092.

And the EZ_mean [2, 4]?
The EZ_mean was -0.03775.

LTSTVQLIM [TM1009] was tested. Which EASY_mean ([1]; […], mean, STDEV) did it give?
Its EASY_mean is -0.03424.

And the EZ_mean [2, 5]?
The EZ_mean was -0.1009.

With KIPVAIKTSPKA [EX1023] as the sequence, how does the EASY_mean [1] read?
The EASY_mean was -0.01234.

And the EZ_mean [2, 6]?
Its EZ_mean is -0.1135.

For TSPKANKEILDE [EX1030], which EASY_mean [1] is on record?
The EASY_mean was -0.0262.

What about the EZ_mean [2, 6] of the same sequence?
Its EZ_mean is -0.138.

LMPFGSLLDYV [CS1033] was tested. Which EASY_mean [1] did it give?
Its EASY_mean is -0.01373.

And the EZ_mean [2]?
The EZ_mean was -0.06309.

What does the source list for QLITQLMPFGSL [CS1040]?
EASY_mean [1]: -0.0163; EZ_mean [2]: -0.03735

Which results are given for VQLIMQLMP [TM1013]?
EASY_mean ([1]; […], mean, STDEV): -0.03636; EZ_mean [2, 3]: -0.1096

KITDFGRAKLLG [LR1044] was tested. Which EASY_mean [1] did it give?
Its EASY_mean is 0.1191.

What about the “EZ50kD (normalised: EBV1101 = 1, EBV0201 = 0)” value [2] of the same sequence?
The value was 0.1471 and 0.1891.

What about the EZ_mean [2] of the same sequence?
The EZ_mean was 0.1681.

What about the “Norm (50 kDa band adj. volume normalised: Undig_37C = 1, Dig_37C = 0)” value [2] of the same sequence?
Its value is 0.1017 and 0.1364.

What about the EZ50kDa [2, 7] of the same sequence?
Its EZ50kDa is 0.2 and 0.168 ± 0.030.

How did the EASY_mean [1] turn out when LITQLMPFGS [CS1018] was run?
The EASY_mean was 0.007236.

What about the EZ_mean [2] of the same sequence?
Its EZ_mean is -0.05783.

Which EASY_mean [1] does the source give for FGSLLDYVRE [CS1025] here?
Its EASY_mean is 0.005114.

And the EZ_mean [2]?
The EZ_mean was -0.05956.

With IKTSPKANKEIL [EX1028] as the sequence, how does the EASY_mean [1] read?
Its EASY_mean is -0.02595.

And the EZ_mean [2, 6]?
The EZ_mean was -0.1371.

How did the EASY_mean ([1]; ELISA signal, mean, […]) turn out when IMQLMPFGCLL [TM1037] was run?
Its EASY_mean is -0.05375.

What about the EZ_mean [2] of the same sequence?
Its EZ_mean is -0.1199.

What does the source list for VQLIMQLMPF [TM1023]?
EASY_mean ([1]; […], mean, STDEV): -0.02163; EZ_mean [2, 8]: -0.03531; Norm_mean [2, 8]: -0.02177

AIKTSPKANKE [EX1019] was tested. Which EASY_mean ([1]; […], mean, STDEV) did it give?
The EASY_mean was 0.001081.

What about the EZ_mean [2, 9] of the same sequence?
The EZ_mean was -0.09791.

TSTVQLIMQLM [TM1031] was tested. Which EASY_mean ([1]; […], mean, STDEV) did it give?
The EASY_mean was -0.04936.

And the EZ_mean [2]?
The EZ_mean was -0.09739.

Which results are given for QLIMQLMPFG [TM1024]?
EASY_mean ([1]; ELISA signal, mean, […]): -0.01897; EZ_mean [2, 8]: -0.01105; Norm_mean [2, 8]: 0.009219

TSPKANKEILD [EX1022] was tested. Which EASY_mean ([1]; ELISA signal, mean, […]) did it give?
The EASY_mean was -0.01584.

What about the EZ_mean [2, 9] of the same sequence?
Its EZ_mean is -0.1213.

Which EASY_mean ([1]; ELISA signal, mean, […]) does the source give for PVAIKTSPKAN [EX1017] here?
Its EASY_mean is -0.01335.

And the EZ_mean [2, 9]?
The EZ_mean was -0.1176.

Which EASY_mean ([1]; […], mean, STDEV) does the source give for TVQLIMQL [TM1003] here?
The EASY_mean was -0.03257.

And the EZ_mean [2, 5]?
Its EZ_mean is -0.09825.

How did the EASY_mean ([1]; ELISA signal, mean, […]) turn out when IKTSPKANKEI [EX1020] was run?
The EASY_mean was -0.02309.

And the EZ_mean [2, 9]?
Its EZ_mean is -0.1313.

Which EASY_mean [1] does the source give for VQLITQLMPFGS [CS1039] here?
Its EASY_mean is -0.02003.

And the EZ_mean [2]?
The EZ_mean was -0.04039.

With TSTVQLIMQLMP [TM1042] as the sequence, how does the EASY_mean ([1]; ELISA signal, mean, […]) read?
Its EASY_mean is -0.04181.

What about the EZ_mean [2] of the same sequence?
Its EZ_mean is -0.1051.

Which EASY_mean [1] does the source give for TDFGRAKLLGAE [LR1046] here?
The EASY_mean was -0.01889.

And the EZ_mean ([2]; EASY MHC-I A*11:01, gel 2019-07-24 lr1046_ex1004 5min, mean of 2 replicates)?
Its EZ_mean is -0.05291.

And the “EZ50kD (normalised: EBV1101 = 1, EBV0201 = 0)” value [2, 10]?
The value was -0.04519.

What about the “Norm (50 kDa band adj. volume normalised: Undig_37C = 1, Dig_37C = 0)” value [2, 10] of the same sequence?
Its value is -0.03888.

What about the “EZ50kD (normalised: EBV1101 = 1, EBV0201 = 0)” value [2, 11] of the same sequence?
Its value is -0.06064.

What about the “Norm (50 kDa band adj. volume normalised: Undig_37C = 1, Dig_37C = 0)” value [2, 11] of the same sequence?
Its value is 0.001098.

Which EASY_mean [1] does the source give for “KTSPKANK [EX1003, EGFR exon 19 deletion-derived peptide]” here?
The EASY_mean was 0.02773.

What about the EZ_mean [2] of the same sequence?
Its EZ_mean is 0.03406.

And the EZ50kDa [2, 7]?
Its EZ50kDa is 0.0341 ± 0.022.

For “AIKTSPKANK [EX1012, EGFR exon 19 deletion-derived peptide]”, which EASY_mean ([1]; […], mean, STDEV) is on record?
Its EASY_mean is 0.01176.

What about the EZ_mean [2, 4] of the same sequence?
Its EZ_mean is -0.007078.

For QLIMQLMP [TM1005], which EASY_mean ([1]; ELISA signal, mean, […]) is on record?
The EASY_mean was -0.03905.

What about the EZ_mean [2, 5] of the same sequence?
The EZ_mean was -0.1114.

How did the EASY_mean ([1]; ELISA signal, mean, […]) turn out when GRAKLLGA [LR1007] was run?
Its EASY_mean is -0.02108.

What about the EZ_mean [2] of the same sequence?
Its EZ_mean is -0.06438.

Which EASY_mean [1] does the source give for GRAKLLGAEEKE [LR1049] here?
Its EASY_mean is -0.01715.

And the EZ_mean [2]?
The EZ_mean was -0.05058.

Which results are given for DFGRAKLLGAE [LR1035]?
EASY_mean [1]: -0.05461; EZ_mean ([2]; EASY MHC-I A*11:01, gel 2019-07-17 lr1028-1036 5min, mean of 2 replicates): -0.0623; EZ50kD (normalised: EBV1101 = 1, EBV0201 = 0) [2, 12]: -0.08387; Norm (50 kDa band adj. volume normalised: Undig_37C = 1, Dig_37C = 0) [2, 12]: -0.0751; EZ50kD (normalised: EBV1101 = 1, EBV0201 = 0) [2, 13]: -0.04073; Norm (50 kDa band adj. volume normalised: Undig_37C = 1, Dig_37C = 0) [2, 13]: -0.03413

Which results are given for TSTVQLIM [TM1001]?
EASY_mean ([1]; […], mean, STDEV): -0.02312; EZ_mean [2, 5]: -0.08359
